Source: patent US11572350B1, “Benzothia(di)azepine compounds and their use as bile acid modulators” (Albireo AB, priority 2020, dated 2023)

Key:
human LBAT = target: T1, human LBAT (Homo sapiens, UniProt Q14973); experiment: LBAT (h/m) assay: 3H-taurocholic acid uptake in human LBAT-overexpressing cells; assay type: cell-based; settings: 0.3 μM 3H-taurocholic acid and 7.5 μM cold taurocholic acid, 20 minutes, read-out: hLBAT IC50
T1 construct: expressed in transfected cells; kept under Geneticin selection
T1 sequence (Q14973 1-349): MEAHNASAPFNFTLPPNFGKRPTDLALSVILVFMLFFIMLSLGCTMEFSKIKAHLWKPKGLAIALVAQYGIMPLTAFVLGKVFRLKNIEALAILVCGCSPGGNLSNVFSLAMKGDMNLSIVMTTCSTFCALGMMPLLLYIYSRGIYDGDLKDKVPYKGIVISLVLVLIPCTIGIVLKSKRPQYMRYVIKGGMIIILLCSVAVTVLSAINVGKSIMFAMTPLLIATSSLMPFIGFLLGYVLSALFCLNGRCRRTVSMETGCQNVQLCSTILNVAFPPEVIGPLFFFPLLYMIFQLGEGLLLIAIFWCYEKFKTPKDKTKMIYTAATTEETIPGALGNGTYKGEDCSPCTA
Description: LBAT (h/m) Assay Protocol
20,000 cells (Human or Mouse LBAT-overexpressing cells) were seeded in 96-wells plate (Corning CLS3809) in 100 μL MEM-alpha medium (Gibco 12571-063) supplemented with 10% FBS (Gibco 10438026) containing Geneticin (Gibco 10131-027) (1 mg/mL) and incubated at 37° C. in 5% CO2 for 24 hours. After incubation, media was decanted from the wells and cells were washed two times with 300 μL of basal MEM-alpha medium (FBS-free). After decanting basal MEM-alpha medium each time, plates were tapped against paper towel to ensure maximum removal of residual media. For human LBAT, incubation mix was prepared by adding test inhibitor dilutions (3-fold serial dilution in DMSO (Sigma D2650), 10 points) in MEM-alpha (without FBS) containing 0.3 μM 3H-taurocholic acid (ARC ART-1368) and 7.5 μM cold taurocholic acid (Sigma T4009) (maintaining 0.2% final DMSO concentration). For mouse LBAT, incubation mix was prepared by adding test inhibitor dilutions (3-fold serial dilution in DMSO, 10 points) in MEM-alpha (without FBS) containing 0.3 μM 3H-taurocholic acid and 25 μM cold taurocholic acid maintaining 0.2% final DMSO concentration). 50 μL of incubation mix containing test inhibitors was then added to the wells (in duplicate) and the plates were incubated for 20 minutes in a CO2 incubator at 37° C. After incubation, the reaction was stopped by keeping the plates on ice water mix for 2-3 minutes and then the incubation mix was aspirated completely from the wells. The wells were washed two times with 250 μL of chilled unlabelled 1 mM taurocholic acid dissolved in HEPES (Gibco 15630080)-buffered (10 mM) HBSS (Gibco 14175079) (pH 7.4). The plates were tapped against a paper towel after every wash to ensure maximum removal of blocking buffer.
100 μL of MicroScint-20 (PerkinElmer 6013621) was added to the wells and kept overnight at room temperature before reading the plates in TopCount NXT™ Microplate Scintillation and Luminescence Counter from PerkinElmer under 3H Test protocol (set at 120 seconds reading time per well, with normal plate orientation).
(§1) Preparation of Test Compound Dilutions
(§2) All test compounds were provided in powder form at room temperature. 10 mM DMSO stocks of the test compounds were prepared, aliquoted and stored at −20° C. From the 10 mM DMSO stock of the compounds, a 3-fold serial dilution in DMSO was prepared to get a total of 10 dilutions of the test compounds. 0.5 μL of this dilution in DMSO was added to 250 μL of FBS-free basal media containing 3H-taurocholic acid and cold taurocholic acid to prepare the incubation mixture.

OATP KO mice = experiment: Effect of LBAT selective compounds on serum bile acid levels in OATP KO mice; assay type: in vivo; settings: male OATP KO mice; for Effect on serum bile acid levels: oral dosing at the indicated doses, FIGS. 1 to 4, n=4
Excerpt: Effect of LBAT Selective Compounds on Serum Bile Acid Levels in OATP KO Mice
Male OATP KO mice (Oatp1a/1b cluster knockout mice, Taconic, USA) aged 8 to 9 weeks were used in the studies. After completion of quarantine and acclimatization period, animals were randomized based on body weight into experimental groups (n=4 mice in each). On the experimental day, a baseline blood sample was collected followed by oral dosing of vehicle (0.5% CMC, 0.1% Tween 80) or compound of Example 3, 6, 13 or 15 at the indicated doses. Blood samples were then collected at various time points after dose (indicated in each graph). Blood was allowed to clot, and serum was collected by centrifugation at 3000 g, 4° C. for 15 minutes and stored at −80° C. for further analysis. The total bile acid concentration in each serum sample was determined by using the CELL BIOLABS Total Bile Acids kit (STA631) according to manufacturer's instructions. Mean±SEM, n=4.

human IBAT = target: T2, human IBAT (Homo sapiens, UniProt Q12908); experiment: IBAT (h/m) assay: 3H-taurocholic acid uptake in human IBAT-overexpressing cells; assay type: cell-based; settings: 0.25 μM 3H-taurocholic acid and 5 μM cold taurocholic acid, 20 minutes, highest test concentration 10 μM, read-out: hIBAT IC50
T2 construct: expressed in transfected cells; kept under Puromycin selection
T2 sequence (Q12908 1-348): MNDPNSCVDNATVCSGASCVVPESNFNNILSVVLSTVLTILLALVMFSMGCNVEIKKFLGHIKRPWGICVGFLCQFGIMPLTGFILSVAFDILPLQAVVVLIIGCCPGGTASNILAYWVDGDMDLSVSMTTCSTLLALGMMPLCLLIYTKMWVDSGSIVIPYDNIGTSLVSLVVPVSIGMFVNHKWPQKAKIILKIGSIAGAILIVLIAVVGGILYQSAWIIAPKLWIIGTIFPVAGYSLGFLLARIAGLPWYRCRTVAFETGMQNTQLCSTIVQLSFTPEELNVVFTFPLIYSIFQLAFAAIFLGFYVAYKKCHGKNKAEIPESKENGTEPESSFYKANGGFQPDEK
Description: IBAT (h/m) Assay Protocol
10,000 cells (Human or Mouse IBAT-overexpressing cells) were seeded in 96-wells plate (Corning CLS3809) in 200 μL MEM-alpha medium (Gibco 12571-063) supplemented with 10% FBS (Gibco 10438026) containing Puromycin (Gibco A1113803) (10 μg/mL) and incubated at 37° C. in 5% CO2 for 48 hours. After incubation, media was decanted from the wells and cells were washed two times with 300 μL of basal MEM-alpha medium (FBS-free). After decanting basal MEM-alpha medium each time, plates were tapped against paper towel to ensure maximum removal of residual media. Test inhibitor dilutions (highest test concentration being 10 μM, 3-fold serial dilution, 10 points) prepared in DMSO (Sigma D2650) were added in incubation mix (maintaining 0.2% final DMSO concentration) containing 0.25 μM 3H-taurocholic acid (ARC ART-1368) and 5 μM of cold taurocholic acid (Sigma T4009). 50 μL of incubation mix containing test inhibitors was then added to the wells (in duplicate) and the plates were incubated for 20 minutes in a CO2 incubator at 37° C. After incubation, the reaction was stopped by keeping the plates on ice water mix for 2-3 minutes and then the incubation mix was aspirated completely from the wells. The wells were washed two times with 250 μL of chilled unlabelled 1 mM taurocholic acid dissolved in HEPES (Gibco 15630080)-buffered (10 mM) HBSS (Gibco 14175079) (pH 7.4). The plates were tapped against a paper towel after every wash to ensure maximum removal of blocking buffer.
100 μL of MicroScint-20 (PerkinElmer 6013621) was added to the wells and kept overnight at room temperature before reading the plates in TopCount NXT™ Microplate Scintillation and Luminescence Counter from PerkinElmer under 3H Test protocol (set at 120 seconds reading time per well).
as §1, §2

[1] = Bidirectional permeability assay (Caco-2 cells); assay type: in vitro ADME; settings: human, FaSSIF donor buffer, 120 minutes at 37° C.; for Papp A→B at 120 min, 10 µM: Caco-2, pH 7.4, absorptive direction (A2B); for Papp B→A at 120 min, 10 µM: Caco-2, pH 7.4, secretory direction (B2A)
Excerpt: (§3) Bidirectional Permeability Assay (Caco-2 Cells)
(§4) HepaRG-Based Assay Protocol

Caco-2 cells = experiment: Bidirectional permeability assay (Caco-2 cells); assay type: in vitro ADME; settings: absorptive direction (A2B); FaSSIF donor buffer; 120 minutes at 37° C.
Excerpt: as §3, §4

| IC50 (human LBAT) | IC50 (human IBAT) | Papp A→B at 120 min, 10 µM [1] | Papp B→A at 120 min, 10 µM [1] | Permeability (Caco-2) Papp A2B (Caco-2 cells) | SMILES | Serum bile acids level (OATP KO mice; 30 mg/kg oral, within one hour after dosing, pre-dose/vehicle 1 to 5 μmol/L) | Effect on serum bile acid levels (OATP KO mice) |
| --- | --- | --- | --- | --- | --- | --- | --- |
| 2.8 nM | 4890 nM | 1.8 ×10⁻⁶ cm/s | 6.9 ×10⁻⁶ cm/s | – | CCCCC1CN(c2ccccc2)c2cc(SCC)c(O/C=C(\F)C(=O)O)cc2S(=O)(=O)C1 (racemic) [Example 13, (Z)-3-((3-butyl-7-(ethylthio)-1,1-dioxido-5-phenyl-2,3,4,5-tetrahydro-1,5-benzothiazepin-8-yl)oxy)-2-fluoroacrylic acid] | about 100 μmol/L | increased serum bile acids in a dose-dependent manner |
| 1.6 nM | 2020 nM | 10.5 ×10⁻⁶ cm/s | 17.1 ×10⁻⁶ cm/s | – | CCCCC1CN(c2ccc(F)cc2)c2cc(SC)c(O/C=C/C(=O)O)cc2S(=O)(=O)N1 (single isomer, unassigned) [Example 3, (E)-3-((3-butyl-5-(4-fluorophenyl)-7-(methylthio)-1,1-dioxido-2,3,4,5-tetrahydro-1,2,5-benzothiadiazepin-8-yl)oxy)acrylic acid] | – | increased serum bile acid levels |
| 129 nM | > 10000 nM | – | – | – | CCCCC1CN(c2ccccc2)c2cc(SCC)c(O/C=C/C(=O)O)cc2S(=O)(=O)N1 (single isomer, unassigned) [Example 6, (E)-3-((3-butyl-7-(ethylthio)-1,1-dioxido-5-phenyl-2,3,4,5-tetrahydro-1,2,5-benzothiadiazepin-8-yl)oxy)acrylic acid] | – | increased serum bile acid levels |
| 1.2 nM | > 3330 nM | – | 5.3 ×10⁻⁶ cm/s | 1.3 ×10⁻⁶ cm/s | CCCCC1CN(c2ccccc2)c2cc(SCC)c(O/C=C(\F)C(=O)O)cc2S(=O)(=O)C1 (single isomer, unassigned) [Example 15, (Z)-3-((3-butyl-7-(ethylthio)-1,1-dioxido-5-phenyl-2,3,4,5-tetrahydro-1,5-benzothiazepin-8-yl)oxy)-2-fluoroacrylic acid] | – | increased serum bile acid levels |
